{"source": "ChEMBL document CHEMBL4507294", "about": "“Data for DCP probe MSD-CYP11B2” (2021)", "key": {"[1]": {"biological_target": "Adenosine receptor A1 (Homo sapiens) (UniProt P30542)", "sequence (P30542 whole entry)": "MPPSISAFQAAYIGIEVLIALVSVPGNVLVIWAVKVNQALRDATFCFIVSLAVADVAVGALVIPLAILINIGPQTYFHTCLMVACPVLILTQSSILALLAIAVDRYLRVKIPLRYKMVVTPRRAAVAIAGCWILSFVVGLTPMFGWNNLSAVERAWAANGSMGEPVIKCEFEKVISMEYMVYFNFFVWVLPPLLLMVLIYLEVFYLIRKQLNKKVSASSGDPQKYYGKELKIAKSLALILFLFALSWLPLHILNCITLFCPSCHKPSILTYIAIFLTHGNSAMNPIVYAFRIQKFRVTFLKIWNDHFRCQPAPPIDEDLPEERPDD", "settings": "Compound concentration 10.0 uM"}, "[2]": {"biological_target": "Melanocyte-stimulating hormone receptor (Homo sapiens) (UniProt Q01726)", "sequence (Q01726 whole entry, looked up)": "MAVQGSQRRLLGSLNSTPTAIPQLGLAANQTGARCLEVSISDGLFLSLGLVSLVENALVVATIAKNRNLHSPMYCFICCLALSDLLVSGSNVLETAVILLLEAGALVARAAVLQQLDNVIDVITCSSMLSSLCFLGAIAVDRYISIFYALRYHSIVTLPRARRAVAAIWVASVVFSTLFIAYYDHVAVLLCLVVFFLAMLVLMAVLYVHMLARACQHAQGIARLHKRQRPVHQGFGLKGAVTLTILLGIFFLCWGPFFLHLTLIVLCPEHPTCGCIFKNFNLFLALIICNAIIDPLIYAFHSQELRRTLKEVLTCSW", "assay": "Melanocortin MC1 Eurofins-Panlabs radioligand binding assay", "settings": "Compound concentration 10.0 uM"}, "[3]": {"biological_target": "GABA-A receptor; anion channel (Rattus norvegicus) (UniProt O09028+P15431+P18506+P18508+P19969+P20236+P23574+P23576+P28471+P28473+P30191+P62813+P63079+P63138+Q91ZM7+Q9ES14)", "settings": "Compound concentration 10.0 uM"}, "[4]": {"biological_target": "Melanocortin receptor 4 (Homo sapiens) (UniProt P32245)", "sequence (P32245 whole entry)": "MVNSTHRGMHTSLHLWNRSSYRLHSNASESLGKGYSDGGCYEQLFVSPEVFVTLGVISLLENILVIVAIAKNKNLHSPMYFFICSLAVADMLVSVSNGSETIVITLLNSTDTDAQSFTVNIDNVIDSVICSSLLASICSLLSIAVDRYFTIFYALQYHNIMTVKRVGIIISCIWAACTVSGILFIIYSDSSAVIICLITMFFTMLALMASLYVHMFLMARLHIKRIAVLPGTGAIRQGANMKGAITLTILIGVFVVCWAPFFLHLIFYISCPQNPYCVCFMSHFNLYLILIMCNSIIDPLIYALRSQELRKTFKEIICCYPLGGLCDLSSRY", "assay": "Inhibition of Melanocortin MC4 at 10 µM in the Eurofins-Panlabs radioligand binding assay (Eurofins_assay_251350)", "parameters": "ligand concentration 0.02 nM", "settings": "Compound concentration 10.0 uM"}, "[5]": {"biological_target": "Alpha-2A adrenergic receptor (Homo sapiens, UniProt P08913)", "sequence (P08913 whole entry)": "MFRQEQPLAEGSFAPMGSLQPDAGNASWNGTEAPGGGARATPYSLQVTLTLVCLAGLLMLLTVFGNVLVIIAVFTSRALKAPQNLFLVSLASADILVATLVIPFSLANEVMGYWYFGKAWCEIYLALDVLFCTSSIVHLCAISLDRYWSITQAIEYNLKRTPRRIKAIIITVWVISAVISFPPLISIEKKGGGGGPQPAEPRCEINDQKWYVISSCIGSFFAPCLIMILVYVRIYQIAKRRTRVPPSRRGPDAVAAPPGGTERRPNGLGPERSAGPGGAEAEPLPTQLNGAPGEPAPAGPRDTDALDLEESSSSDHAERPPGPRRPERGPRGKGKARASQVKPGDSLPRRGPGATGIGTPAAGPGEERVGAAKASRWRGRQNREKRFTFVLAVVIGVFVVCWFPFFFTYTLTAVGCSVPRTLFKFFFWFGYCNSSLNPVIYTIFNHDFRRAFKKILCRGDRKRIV", "assay": "GPCRScan assay: inhibition of Alpha2A", "parameters": "radioligand conc. used [nm] 1.0 – 3.0, parental cells stable MDCK"}, "[6]": {"biological_target": "Muscarinic acetylcholine receptor M3 (Homo sapiens) (UniProt P20309)", "sequence (P20309 whole entry, looked up)": "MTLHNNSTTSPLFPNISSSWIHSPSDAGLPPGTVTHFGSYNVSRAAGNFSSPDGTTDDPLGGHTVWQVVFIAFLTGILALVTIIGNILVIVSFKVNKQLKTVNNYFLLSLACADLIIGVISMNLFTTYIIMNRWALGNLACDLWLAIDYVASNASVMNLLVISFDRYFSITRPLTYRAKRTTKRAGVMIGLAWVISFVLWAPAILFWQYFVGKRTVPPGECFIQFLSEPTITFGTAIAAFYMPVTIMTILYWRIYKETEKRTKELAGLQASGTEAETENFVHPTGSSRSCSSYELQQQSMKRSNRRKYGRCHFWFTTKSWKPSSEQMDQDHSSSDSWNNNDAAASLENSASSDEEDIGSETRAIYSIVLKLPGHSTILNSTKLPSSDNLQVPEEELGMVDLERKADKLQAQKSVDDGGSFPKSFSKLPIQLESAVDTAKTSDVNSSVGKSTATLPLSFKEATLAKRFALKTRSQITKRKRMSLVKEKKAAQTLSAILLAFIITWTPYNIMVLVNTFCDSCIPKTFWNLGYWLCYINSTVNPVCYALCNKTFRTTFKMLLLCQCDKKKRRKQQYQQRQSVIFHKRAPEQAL", "settings": "Compound concentration 10.0 uM"}, "[7]": {"biological_target": "T1, 5-hydroxytryptamine receptor 3A (Homo sapiens) (UniProt P46098)", "T1 sequence (whole entry)": "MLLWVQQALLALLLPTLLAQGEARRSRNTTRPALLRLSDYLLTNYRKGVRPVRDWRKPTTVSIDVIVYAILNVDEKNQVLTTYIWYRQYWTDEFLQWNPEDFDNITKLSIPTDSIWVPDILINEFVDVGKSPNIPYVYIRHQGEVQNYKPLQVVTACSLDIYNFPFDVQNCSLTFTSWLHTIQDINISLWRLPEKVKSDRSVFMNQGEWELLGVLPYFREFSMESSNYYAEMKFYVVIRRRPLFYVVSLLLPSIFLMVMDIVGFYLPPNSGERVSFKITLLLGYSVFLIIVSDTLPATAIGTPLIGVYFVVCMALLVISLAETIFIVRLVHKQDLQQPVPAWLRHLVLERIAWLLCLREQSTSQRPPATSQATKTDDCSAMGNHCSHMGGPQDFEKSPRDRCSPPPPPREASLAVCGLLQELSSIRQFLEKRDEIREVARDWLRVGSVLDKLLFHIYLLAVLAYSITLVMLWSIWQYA", "assay": "Inhibition of Serotonin (5-Hydroxytryptamine) 5-HT3 at 10 µM in the Eurofins-Panlabs radioligand binding assay (Eurofins_assay_271910)", "parameters": "ligand concentration 0.69 nM", "settings": "Compound concentration 10.0 uM"}, "[8]": {"biological_target": "Glutamate receptor ionotropic, kainate (Rattus norvegicus) (UniProt P22756+Q01812+P42260+P42264+Q63273)", "assay": "Inhibition of Glutamate, Kainate at 10 µM in the Eurofins-Panlabs radioligand binding assay (Eurofins_assay_232700)", "settings": "Compound concentration 10.0 uM"}, "[9]": {"biological_target": "T2, Beta-1 adrenergic receptor (Homo sapiens, UniProt P08588)", "assay": "GPCRScan assay: inhibition of Beta1", "parameters": "radioligand conc. used [nm] 0.1 – 0.2, parental cells CHO Flp-In"}, "[10]": {"biological_target": "T3, Muscarinic acetylcholine receptor M1 (Homo sapiens) (UniProt P11229)", "T3 sequence (whole entry)": "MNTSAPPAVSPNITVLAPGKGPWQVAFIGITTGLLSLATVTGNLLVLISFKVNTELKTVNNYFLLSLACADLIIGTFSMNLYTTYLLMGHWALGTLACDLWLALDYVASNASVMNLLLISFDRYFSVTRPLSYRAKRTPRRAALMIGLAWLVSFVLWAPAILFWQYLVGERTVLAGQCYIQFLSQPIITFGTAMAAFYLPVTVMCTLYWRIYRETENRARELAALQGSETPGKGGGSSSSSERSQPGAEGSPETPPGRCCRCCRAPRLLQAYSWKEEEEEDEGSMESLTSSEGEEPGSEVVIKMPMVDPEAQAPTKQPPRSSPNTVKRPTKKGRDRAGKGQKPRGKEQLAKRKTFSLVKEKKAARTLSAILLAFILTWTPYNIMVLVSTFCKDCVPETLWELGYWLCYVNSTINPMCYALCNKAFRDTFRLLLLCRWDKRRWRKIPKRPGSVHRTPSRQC", "settings": "Compound concentration 10.0 uM"}, "[11]": {"biological_target": "Cholecystokinin receptor type A (Homo sapiens) (UniProt P32238)", "sequence (P32238 whole entry)": "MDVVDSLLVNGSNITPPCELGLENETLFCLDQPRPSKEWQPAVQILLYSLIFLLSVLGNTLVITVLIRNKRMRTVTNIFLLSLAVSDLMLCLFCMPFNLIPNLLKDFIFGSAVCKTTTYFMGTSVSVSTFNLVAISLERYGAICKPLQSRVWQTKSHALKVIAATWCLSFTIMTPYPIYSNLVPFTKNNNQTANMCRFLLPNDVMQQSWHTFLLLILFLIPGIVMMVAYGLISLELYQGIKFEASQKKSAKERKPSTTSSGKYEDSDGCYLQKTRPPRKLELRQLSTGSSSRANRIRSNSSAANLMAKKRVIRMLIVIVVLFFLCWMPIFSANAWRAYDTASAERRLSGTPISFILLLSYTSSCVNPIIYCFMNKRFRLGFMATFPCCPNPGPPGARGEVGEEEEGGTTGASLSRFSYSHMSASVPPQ", "assay": "Inhibition of Cholecystokinin CCK1 (CCKA) at 10 µM in the Eurofins-Panlabs radioligand binding assay (Eurofins_assay_218020)", "settings": "Compound concentration 10.0 uM"}, "Homo sapiens": {"organism": "Homo sapiens", "assay": "Inhibition of Nicotinic Acetylcholine at compound concentration of 10.0 uM in the Eurofins-Panlabs radioligand binding assay (Eurofins_assay_258590)", "type": "protein-complex assay", "settings": "Compound concentration 10.0 uM"}, "Rattus norvegicus [12]": {"organism": "Rattus norvegicus", "assay": "GABAA, Ro-15-1788, Hippocampus Eurofins-Panlabs radioligand binding assay", "parameters": "ligand concentration 1 nM", "settings": "Compound concentration 10.0 uM"}, "Rattus norvegicus [13]": {"organism": "Rattus norvegicus", "assay": "Glutamate, NMDA, Polyamine Eurofins-Panlabs radioligand binding assay", "type": "protein-complex assay", "parameters": "ligand concentration 2 nM", "settings": "Compound concentration 10.0 uM"}, "[14]": {"biological_target": "T2, Beta-1 adrenergic receptor"}, "[15]": {"biological_target": "T4, 5-hydroxytryptamine receptor 2C (Homo sapiens) (UniProt P28335)", "T4 sequence (whole entry)": "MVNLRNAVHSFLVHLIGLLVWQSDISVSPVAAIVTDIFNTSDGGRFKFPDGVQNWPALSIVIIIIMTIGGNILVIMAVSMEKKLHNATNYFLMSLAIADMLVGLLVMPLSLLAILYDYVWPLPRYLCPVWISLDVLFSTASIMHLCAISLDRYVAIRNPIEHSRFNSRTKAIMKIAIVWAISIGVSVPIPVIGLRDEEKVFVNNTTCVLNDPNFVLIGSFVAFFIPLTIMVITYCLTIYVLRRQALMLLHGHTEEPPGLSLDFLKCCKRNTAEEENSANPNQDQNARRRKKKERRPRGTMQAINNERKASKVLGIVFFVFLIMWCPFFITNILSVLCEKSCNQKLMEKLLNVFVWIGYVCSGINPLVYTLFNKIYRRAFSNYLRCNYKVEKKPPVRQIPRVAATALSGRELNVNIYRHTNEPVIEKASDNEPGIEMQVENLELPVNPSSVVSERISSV", "settings": "Compound concentration 10.0 uM"}, "[16]": {"biological_target": "5-hydroxytryptamine receptor 2B (Homo sapiens, UniProt P41595)", "sequence (P41595 whole entry)": "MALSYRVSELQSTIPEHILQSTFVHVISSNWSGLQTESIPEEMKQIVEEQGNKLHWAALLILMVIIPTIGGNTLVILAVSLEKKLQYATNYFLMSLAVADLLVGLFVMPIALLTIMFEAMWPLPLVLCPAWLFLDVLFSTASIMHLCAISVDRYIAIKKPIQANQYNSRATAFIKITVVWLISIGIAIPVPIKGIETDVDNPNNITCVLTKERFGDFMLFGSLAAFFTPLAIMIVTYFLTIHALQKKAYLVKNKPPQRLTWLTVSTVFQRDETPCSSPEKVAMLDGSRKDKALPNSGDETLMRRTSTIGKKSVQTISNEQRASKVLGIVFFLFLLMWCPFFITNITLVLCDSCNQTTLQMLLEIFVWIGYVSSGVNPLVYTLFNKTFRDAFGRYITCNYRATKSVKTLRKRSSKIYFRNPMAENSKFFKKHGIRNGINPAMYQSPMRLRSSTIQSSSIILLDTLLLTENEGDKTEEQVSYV"}, "[17]": {"biological_target": "Glutamate NMDA receptor (Rattus norvegicus) (UniProt P35439+Q00959+Q00960+Q00961+Q62645+Q8VHN2+Q9R1M7)", "settings": "Compound concentration 10.0 uM"}, "[18]": {"biological_target": "5-hydroxytryptamine receptor 6 (Homo sapiens, UniProt P50406)", "sequence (P50406 whole entry)": "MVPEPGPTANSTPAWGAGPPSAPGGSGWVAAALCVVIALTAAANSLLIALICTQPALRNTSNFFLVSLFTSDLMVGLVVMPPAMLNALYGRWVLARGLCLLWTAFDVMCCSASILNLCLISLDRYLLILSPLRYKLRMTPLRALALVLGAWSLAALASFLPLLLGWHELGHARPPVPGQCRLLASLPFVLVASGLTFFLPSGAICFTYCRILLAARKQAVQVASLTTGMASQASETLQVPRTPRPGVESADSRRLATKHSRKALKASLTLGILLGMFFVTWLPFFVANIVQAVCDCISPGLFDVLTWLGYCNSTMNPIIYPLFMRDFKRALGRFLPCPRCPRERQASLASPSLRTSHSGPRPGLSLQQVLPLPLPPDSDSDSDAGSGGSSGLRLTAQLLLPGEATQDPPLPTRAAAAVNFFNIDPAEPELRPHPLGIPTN", "assay": "GPCRScan assay: inhibition of 5-HT6", "parameters": "radioligand conc. used [nm] 2.0 – 4.0, parental cells stable HEK"}, "[19]": {"biological_target": "Histamine H4 receptor (Homo sapiens) (UniProt Q9H3N8)", "sequence (Q9H3N8 whole entry)": "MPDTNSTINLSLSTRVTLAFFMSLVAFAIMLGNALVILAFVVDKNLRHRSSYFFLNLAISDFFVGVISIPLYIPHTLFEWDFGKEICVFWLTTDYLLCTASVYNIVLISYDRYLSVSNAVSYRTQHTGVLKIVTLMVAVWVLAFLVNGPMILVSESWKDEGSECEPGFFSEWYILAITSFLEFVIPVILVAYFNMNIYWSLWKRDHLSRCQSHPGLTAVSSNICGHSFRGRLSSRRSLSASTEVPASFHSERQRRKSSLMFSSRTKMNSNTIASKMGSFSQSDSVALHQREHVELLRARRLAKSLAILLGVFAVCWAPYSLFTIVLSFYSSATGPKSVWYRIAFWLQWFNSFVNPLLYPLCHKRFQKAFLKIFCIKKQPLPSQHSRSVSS", "settings": "Compound concentration 10.0 uM"}, "[20]": {"biological_target": "Delta-type opioid receptor (Homo sapiens) (UniProt P41143)", "sequence (P41143 whole entry)": "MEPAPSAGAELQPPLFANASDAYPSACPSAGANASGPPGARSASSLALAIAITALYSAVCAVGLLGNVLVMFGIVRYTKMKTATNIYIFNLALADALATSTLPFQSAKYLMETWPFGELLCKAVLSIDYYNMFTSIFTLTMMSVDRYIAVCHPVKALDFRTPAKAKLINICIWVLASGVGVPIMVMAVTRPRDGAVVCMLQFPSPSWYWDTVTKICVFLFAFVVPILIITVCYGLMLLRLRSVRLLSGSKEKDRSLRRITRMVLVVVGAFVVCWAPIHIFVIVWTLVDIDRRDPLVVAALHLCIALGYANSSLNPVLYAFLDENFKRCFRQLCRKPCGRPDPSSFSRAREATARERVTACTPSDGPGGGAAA", "settings": "Compound concentration 10.0 uM"}}, "data": [{"smiles": "CC(C)(O)c1cncc(-c2nc3ccc(F)cc3n2C2CC2)c1", "note": "[MSD-CYP11B2]", "values": [{"measurement": "inhibition", "setting": "[1]", "value": 20, "unit": "%"}, {"measurement": "inhibition", "setting": "[2]", "value": -1, "unit": "%"}, {"measurement": "inhibition", "setting": "[3]", "value": 6.26, "unit": "%"}, {"measurement": "inhibition", "setting": "[4]", "value": -1, "unit": "%"}, {"measurement": "Ki", "setting": "[5]", "value": 2610, "unit": "nM"}, {"measurement": "inhibition", "setting": "[6]", "value": 2, "unit": "%"}, {"measurement": "inhibition", "setting": "[7]", "value": -4, "unit": "%"}, {"measurement": "inhibition", "setting": "[8]", "value": -5, "unit": "%"}, {"measurement": "Ki", "setting": "[9]", "value": 2370, "unit": "nM"}, {"measurement": "inhibition", "setting": "[10]", "value": -4, "unit": "%"}, {"measurement": "inhibition", "setting": "[11]", "value": 4, "unit": "%"}, {"measurement": "inhibition", "setting": "Homo sapiens", "value": -3, "unit": "%"}, {"measurement": "inhibition", "setting": "Rattus norvegicus [12]", "value": 12, "unit": "%"}, {"measurement": "inhibition", "setting": "Rattus norvegicus [13]", "value": -3, "unit": "%"}, {"measurement": "inhibition", "setting": "[14]; Compound concentration 0.01 uM", "value": 5, "unit": "%"}, {"measurement": "inhibition", "setting": "[14]; Compound concentration 0.1 uM", "value": -1, "unit": "%"}, {"measurement": "inhibition", "setting": "[14]; Compound concentration 1.0 uM", "value": 9, "unit": "%"}, {"measurement": "inhibition", "setting": "[14]; Compound concentration 10.0 uM", "value": 51, "unit": "%"}, {"measurement": "inhibition", "setting": "[15]", "value": 11, "unit": "%"}, {"measurement": "inhibition", "setting": "[16]; Compound concentration 0.01 uM", "value": -2, "unit": "%"}, {"measurement": "inhibition", "setting": "[16]; Compound concentration 0.1 uM", "value": -5, "unit": "%"}, {"measurement": "inhibition", "setting": "[16]; Compound concentration 1.0 uM", "value": 17, "unit": "%"}, {"measurement": "inhibition", "setting": "[16]; Compound concentration 10.0 uM", "value": 65, "unit": "%"}, {"measurement": "inhibition", "setting": "[17]", "value": -1, "unit": "%"}]}, {"smiles": "FC(F)(F)c1ccc2c(c1)nc(-c1cccnc1)n2C1CC1", "note": "[MSD-CYP11B2-Negative-control]", "values": [{"measurement": "Ki", "setting": "[18]", "value": 3.06, "unit": "µM"}, {"measurement": "inhibition", "setting": "[19]", "value": -9.43, "unit": "%"}, {"measurement": "inhibition", "setting": "[20]", "value": -9.33, "unit": "%"}]}]}
